Results on ten compounds are retold here after US11279694B2, “Alvocidib prodrugs and their use as protein kinase inhibitors” (Sumitomo Dainippon Pharma Oncology, Inc., priority 2016, dated 2022).

Values joined by “and” are separate entries in the source; they are usually repeats but may differ in a detail not shown here. Equal entries are not always repeated.

A short description of data set [1]: Pharmacokinetic testing of representative compounds in CD-1 mice, oral dosing. The format is in vivo. The following applies: mean ± SD; for AUC0→∞, analyte: prodrug compound / AUCLast, analyte: prodrug compound / half-life / Tmax: dosed orally 10 mg/kg, analyte = dosed prodrug, nd = none detected; for half-life / Tmax: mouse, in vivo, po; for half-life: read-out: Half Life, analyte: prodrug compound (converted); for Tmax: read-out: Tmax, analyte: prodrug compound. As for the experimental part: Representative compounds were tested for pharmacokinetic activity in CD-1 mice. Mice were dosed orally with 10 mg/kg of each representative compound as well as alvocidib.
The results in Table 3 show the tested compounds afforded high exposure of released alvocidib and no apparent exposure of the prodrug compounds. Additional results are shown in Tables 4 and 5, including use of alvocidib.HCl as a control: […]

Data set [2] is described as follows: Comparison of exposure of released alvocidib to parent prodrug exposure. The format is in vivo. The following applies: expressed as a percentage of the released alvocidib exposure. As for the experimental part:
Representative prodrug compounds (i.e., Compounds 10, 21-28 and 29-31) were tested to determine the resultant exposure of released alvocidib as well exposure of the parent compound. The exposure of the parent prodrug is expressed as a percentage of the released alvocidib exposure (% F). The released alvocidib exposure (% F) for each prodrug was calculated as a percentage of the exposure of alvocidib, dosed orally at an equivalent dose.

The mark [3] stands for this setting: labelled compound dosed orally 10 mg/kg, analyte = alvocidib (released from prodrug, or alvocidib.HCl control), hydrochloride, 10 mg/kg.

Take `CN1CC[C@H](c2c(O)cc(O)c3c(=O)cc(-c4ccccc4Cl)oc23)[C@H](O)C1.Cl` [Alvocidib•HCl, 2-(2-chlorophenyl)-5,7-dihydroxy-8-[(3S,4R)-3-hydroxy-1-methylpiperidin-4-yl]-4H-chromen-4-one hydrochloride, reference compound]: in data set [1] (setting [3]), the “AUC0→∞, analyte: Alvocidib” value is 10,933.3 ± 4498.0 ng · h/mL or ng · h/G and 10,603.8 ± 1968.4 ng · h/mL or ng · h/G; the “AUCLast, analyte: Alvocidib” value was 7275.2 ± 2572.2 ng · h/mL or ng · h/G and 9952.7 ± 1769.5 ng · h/mL or ng · h/G.

Consider `CCOC(=O)O[C@@H]1CN(C)CC[C@@H]1c1c(O)cc(O)c2c(=O)cc(-c3ccccc3Cl)oc12` [Compound 10, (3S, 4R)-4-(2-(2-chlorophenyl)-5,7-dihydroxy-4-oxo-4H-chromen-8-yl)-1-methylpiperidin-3-yl ethyl carbonate], for which, in data set [1], the “AUC0→∞, analyte: prodrug compound” value is 646.8 ± 219.4 ng · h/mL or ng · h/G; the “AUCLast, analyte: prodrug compound” value is 405.4 ± 215.6 ng · h/mL or ng · h/G; the half-life was 3.8 ± 0.6 h; the Tmax turned out to be 0.25 h. Also, the “exposure of the parent prodrug” value in data set [2] is 2%.

For `COC(=O)O[C@@H]1CN(C)CC[C@@H]1c1c(O)cc(O)c2c(=O)cc(-c3ccccc3Cl)oc12` [Compound 11, (3S, 4R)-4-(2-(2-chlorophenyl)-5,7-dihydroxy-4-oxo-4H-chromen-8-yl)-1-methylpiperidin-3-yl methyl carbonate], in data set [1], the “AUC0→∞, analyte: prodrug compound” value is recorded as 275.1 ± 24.1 ng · h/mL or ng · h/G; the “AUCLast, analyte: prodrug compound” value is reported as 238.3 ± 43.9 ng · h/mL or ng · h/G; the half-life was 4.2 ± 0.1 h; the Tmax stood at 0.25 h.

`CCNC(=O)O[C@@H]1CN(C)CC[C@@H]1c1c(O)cc(O)c2c(=O)cc(-c3ccccc3Cl)oc12` [Compound 12, (3S, 4R)-4-(2-(2-chlorophenyl)-5,7-dihydroxy-4-oxo-4H-chromen-8-yl)-1-methylpiperidin-3-yl ethylcarbamate]: in data set [1], the “AUC0→∞, analyte: prodrug compound” value is reported as 281.4 ± 28.3 ng · h/mL or ng · h/G; the “AUCLast, analyte: prodrug compound” value is 262.2 ± 27.8 ng · h/mL or ng · h/G; the half-life is 2.1 ± 0.1 h; the time of peak concentration (Tmax) amounted to 0.42 ± 0.1 h.

As to `CNC(=O)O[C@@H]1CN(C)CC[C@@H]1c1c(O)cc(O)c2c(=O)cc(-c3ccccc3Cl)oc12` [Compound 13, (3S, 4R)-4-(2-(2-chlorophenyl)-5,7-dihydroxy-4-oxo-4H-chromen-8-yl)-1-methylpiperidin-3-yl methylcarbamate], in data set [1], the “AUC0→∞, analyte: prodrug compound” value was 620.2 ± 147.7 ng · h/mL or ng · h/G; the “AUCLast, analyte: prodrug compound” value is on record as 594.7 ± 143.7 ng · h/mL or ng · h/G; the half-life is 2 ± 0.8 h; the Tmax came to 0.4 ± 0.1 h.

Turning to `CC(C)C(=O)O[C@@H]1CN(C)CC[C@@H]1c1c(O)cc(O)c2c(=O)cc(-c3ccccc3Cl)oc12` [Compound 22, (3S, 4R)-4-(2-(2-chlorophenyl)-5,7-dihydroxy-4-oxo-4H-chromen-8-yl)-1-methylpiperidin-3-yl isobutyrate], the “exposure of the parent prodrug” value in data set [2] was found to be 3%.

Consider `C[C@H](N)C(=O)O[C@@H]1CN(C)CC[C@@H]1c1c(O)cc(O)c2c(=O)cc(-c3ccccc3Cl)oc12` [Compound 27, (3S, 4R)-4-(2-(2-chlorophenyl)-5,7-dihydroxy-4-oxo-4H-chromen-8-yl)-1-methylpiperidin-3-yl L-alaninate], for which, in data set [2], the “exposure of the parent prodrug” value is given as “low exposure”.

As for `CN1CC[C@H](c2c(O)cc(O)c3c(=O)cc(-c4ccccc4Cl)oc23)[C@H](OC(=O)CN)C1` [Compound 28, (3S, 4R)-4-(2-(2-chlorophenyl)-5,7-dihydroxy-4-oxo-4H-chromen-8-yl)-1-methylpiperidin-3-yl glycinate], the “exposure of the parent prodrug” value in data set [2] is recorded as “not detected”.

With `CCCCCCC(=O)O[C@@H]1CN(C)CC[C@@H]1c1c(O)cc(O)c2c(=O)cc(-c3ccccc3Cl)oc12` [Compound 31, (3S, 4R)-4-(2-(2-chlorophenyl)-5,7-dihydroxy-4-oxo-4H-chromen-8-yl)-1-methylpiperidin-3-yl heptanoate], the “exposure of the parent prodrug” value in data set [2] is reported as “not detected”.

With `CCCCC(=O)O[C@@H]1CN(C)CC[C@@H]1c1c(O)cc(O)c2c(=O)cc(-c3ccccc3Cl)oc12` [Compound 32, (3S, 4R)-4-(2-(2-chlorophenyl)-5,7-dihydroxy-4-oxo-4H-chromen-8-yl)-1-methylpiperidin-3-yl pentanoate], the “exposure of the parent prodrug” value in data set [2] was “not detected”.

A word on the half-life: it is how long it takes for the measured level to halve. For orientation: Tmax means the time from dosing to the highest level.
